In US20230141600A1, “IMIDAZOPYRAZINE DERIVATIVES” (priority 2020, published 2023):
Where a name gives a salt, the structure may show the parent alone.

The compounds below were run on Acinetobacter baumannii ATCC17978 (assay: 90% growth inhibitory concentration (IC90) determination, antimicrobial susceptibility testing). Conditions: ATCC17978, 90% growth inhibition, Iso-Sensitest broth, OD 600 nm over 16 h, 35±2° C., read-out: ATCC 17978 IC90.
Format: cell-based
Experimental: Antimicrobial Susceptibility Testing:
90% Growth Inhibitory Concentration (IC90) Determination
The in vitro antimicrobial activity of the compounds was determined according to the following procedure:
The assay used a 10-points Iso-Sensitest broth medium to measure quantitatively the in vitro activity of the compounds against Acinetobacter baumannii ATCC17961 and ATCC17978.
Stock compounds in DMSO were serially twofold diluted (e.g. range from 50 to 0.097 μM final concentration) in 384 wells microtiter plates and inoculated with 49 μl the bacterial suspension in Iso-Sensitest medium to have a final cell concentration of ˜5×10^(5) CFU/ml in a final volume/well of 50 ul/well. Microtiter plates were incubated at 35±2° C.
Bacterial cell growth was determined with the measurement of optical density at λ=600 nm each minutes over a time course of 16 h. Growth inhibition was calculated during the logarithmic growth of the bacterial cells with determination of the concentration inhibiting 50% (IC50) and 90% (IC90) of the growth.
Table 1 provides the 90% growth inhibitory concentrations (IC90) in micromoles per liter of the compounds of present invention obtained against the strain Acinetobacter baumannii ATCC17978.

Going from COc1ccc(-c2cnc3c(Nc4ccc5c(c4)CCN(CCOCC[N+](C)(C)C)C5=O)nccn23)c(F)c1F [Example 16, 2-[2-[6-[[3-(2,3-difluoro-4-methoxy-phenyl)imidazo[1,2-a]pyrazin-8-yl]amino]-1-oxo-3,4-dihydroisoquinolin-2-yl]ethoxy]ethyl-trimethyl-ammonium Formate] to COc1ccc(-c2cnc3c(Nc4ccc(C(=O)NCCOCC[N+](C)(C)C)c(Br)c4)nccn23)c(F)c1F [Example 44, 2-[2-[[2-bromo-4-[[3-(2,3-difluoro-4-methoxy-phenyl)imidazo[1,2-a]pyrazin-8-yl]amino]benzoyl]amino]ethoxy]ethyl-trimethyl-ammonium 2,2,2-trifluoroacetate], the IC90 falls from 396 nM to 148 nM (2.7-fold).

Going from Cc1cc(Nc2nccn3c(-c4ccc(OC(F)F)cc4)cnc23)ccc1C(=O)NCCCCCC[N+](C)(C)C [Example 25, 6-(4-((3-(4-(difluoromethoxy)phenyl)imidazo[1,2-a]pyrazin-8-yl)amino)-2-methylbenzamido)-N,N,N-trimethylhexan-1-aminium Formate] to Cc1cc(Nc2nccn3c(-c4ccc(OC(F)F)cc4)cnc23)ccc1C(=O)N1CCC(CC[N+](C)(C)C)CC1 [Example 29, 2-(1-(4-((3-(4-(Difluoromethoxy)phenyl)imidazo[1,2-a]pyrazin-8-yl)amino)-2-methylbenzoyl)piperidin-4-yl)-N,N,N-trimethylethanaminium Formate], the IC90 falls from 591 nM to 293 nM (2-fold).

Going from CCC[N+](CCC)(CCC)CCOCCNC(=O)c1ccc(Nc2nccn3c(-c4ccc(OCC#N)c(F)c4F)cnc23)cc1Cl [Example 45, 2-[2-[[2-Chloro-4-[[3-[4-(cyanomethoxy)-2,3-difluoro-phenyl]imidazo[1,2-a]pyrazin-8-yl]amino]benzoyl]amino]ethoxy]ethyl-tripropyl-ammonium Iodide] to CCc1cc(Nc2nccn3c(-c4ccc(OCC#N)c(F)c4F)cnc23)ccc1C(=O)NCCOCC[N+](C)(C)C [Example 41, 2-[2-[[4-[[3-[4-(Cyanomethoxy)-2,3-difluoro-phenyl]imidazo[1,2-a]pyrazin-8-yl]amino]-2-ethyl-benzoyl]amino]ethoxy]ethyl-trimethyl-ammonium Iodide], the IC90 falls from 321 nM to 132 nM (2.4-fold).

Cc1cc(Nc2nccn3c(-c4ccc(OC(F)F)cc4)cnc23)ccc1C(=O)N1CCN(C(=O)NCC[N+](C)(C)C)CC1 [Example 36, 2-[[4-[4-[[3-[4-(Difluoromethoxy)phenyl]imidazo[1,2-a]pyrazin-8-yl]amino]-2-methyl-benzoyl]piperazine-1-carbonyl]amino]ethyl-trimethyl-ammonium Formate] and Cc1cc(Nc2nccn3c(-c4ccc(OC(F)F)cc4)cnc23)ccc1C(=O)N1CCN(C(=O)N2CC[N+](C)(C)CC2)CC1 [Example 30, [4-[[3-[4-(Difluoromethoxy)phenyl]imidazo[1,2-a]pyrazin-8-yl]amino]-2-methyl-phenyl]-[4-(4,4-dimethylpiperazin-4-ium-1-carbonyl)piperazin-1-yl]methanone Formate] are within 1.5-fold of each other in IC90: 431 nM for the first, 497 nM for the second.

Compared with C[N+](C)(C)CC(=O)N1CCN(C(=O)c2ccc(Nc3nccn4c(-c5ccc(OCC#N)c(F)c5F)cnc34)cc2Cl)CC1 [Example 54, 2-(4-(2-Chloro-4-((3-(4-(cyanomethoxy)-2,3-difluorophenyl)imidazo[1,2-a]pyrazin-8-yl)amino)benzoyl)piperazin-1-yl)-N,N,N-trimethyl-2-oxoethan-1-aminium Formate], COc1ccc(-c2cnc3c(Nc4ccc(C(=O)N5CCN(C(=O)C[N+](C)(C)C)CC5)c(C)c4)nccn23)cc1F [Example 32, 2-(4-(4-((3-(3-Fluoro-4-methoxyphenyl)imidazo[1,2-a]pyrazin-8-yl)amino)-2-methylbenzoyl)piperazin-1-yl)-N,N,N-trimethyl-2-oxoethan-1-aminium Iodide] is 6.8-fold higher in IC90: 45.2 nM for the first, 307 nM for the second.

Compared with C[N+]1(CCOCCNC(=O)c2ccc(Nc3nccn4c(-c5ccc(OCC#N)c(F)c5F)cnc34)cc2Cl)CCCC1 [Example 46, 2-Chloro-4-[[3-[4-(cyanomethoxy)-2,3-difluoro-phenyl]imidazo[1,2-a]pyrazin-8-yl]amino]-N-[2-[2-(1-methylpyrrolidin-1-ium-1-yl)ethoxy]ethyl]benzamide Formate], C[N+]1(CCOCCNC(=O)c2ccc(Nc3nccn4c(-c5ccc(OCC#N)c(F)c5F)cnc34)cc2Cl)CCNC(C(=O)O)C1 (stereo not drawn) [Example 17, 4-[2-[2-[[2-chloro-4-[[3-[4-(cyanomethoxy)-2,3-difluoro-phenyl]imidazo[1,2-a]pyrazin-8-yl]amino]benzoyl]amino]ethoxy]ethyl]-4-methyl-piperazin-4-ium-2-carboxylic acid Formate] is 8-fold higher in IC90: 161 nM for the first, 1290 nM for the second.

Going from CCc1cc(Nc2nccn3c(-c4ccc(OC)c(F)c4F)cnc23)ccc1C(=O)NCCOCC[N+](C)(C)CCO [Example 51, 2-[2-[[4-[[3-(2,3-Difluoro-4-methoxy-phenyl)imidazo[1,2-a]pyrazin-8-yl]amino]-2-ethyl-benzoyl]amino]ethoxy]ethyl-(2-hydroxyethyl)-dimethyl-ammonium formate] to CCc1cc(Nc2nccn3c(-c4ccc(OC)c(F)c4F)cnc23)ccc1C(=O)NCCOCC[N+](C)(C)CCCC(=O)O [Example 53, 3-Carboxypropyl-[2-[2-[[4-[[3-(2,3-difluoro-4-methoxy-phenyl)imidazo[1,2-a]pyrazin-8-yl]amino]-2-ethyl-benzoyl]amino]ethoxy]ethyl]-dimethyl-ammonium Formate], the IC90 rises from 62.8 nM to 405 nM (6.4-fold).

Compared with CC[N+]1(CC)CCC(CCN(C)C(=O)c2ccc(Nc3nccn4c(-c5ccc(OC(F)F)cc5)cnc34)cc2C)CC1 [Example 24, 4-(2-(4-((3-(4-(difluoromethoxy)phenyl)imidazo[1,2-a]pyrazin-8-yl)amino)-N,2-dimethylbenzamido)ethyl)-1,1-diethylpiperidin-1-ium Formate], Cc1cc(Nc2nccn3c(-c4ccc(OC(F)F)cc4)cnc23)ccc1C(=O)N(C)CCC1CCN(C(=O)CC(O)C[N+](C)(C)C)CC1 (stereo not drawn) [Example 39, 4-(4-(2-(4-((3-(4-(Difluoromethoxy)phenyl)imidazo[1,2-a]pyrazin-8-yl)amino)-N,2-dimethylbenzamido)ethyl)piperidin-1-yl)-2-hydroxy-N,N,N-trimethyl-4-oxobutan-1-aminium Formate] is 3.2-fold higher in IC90: 742 nM for the first, 2380 nM for the second.

Compared with C#CCOc1ccc(-c2cnc3c(Nc4ccc(C(=O)NCCOCC[N+](C)(C)C)c(CC)c4)nccn23)c(F)c1F [Example 15, 2-[2-[[4-[[3-(2,3-Difluoro-4-prop-2-ynoxy-phenyl)imidazo[1,2-a]pyrazin-8-yl]amino]-2-ethyl-benzoyl]amino]ethoxy]ethyl-trimethyl-ammonium 2,2,2-trifluoroacetate], CCc1cc(Nc2nccn3c(-c4ccc(Cl)c(F)c4F)cnc23)ccc1C(=O)NCCC[N+](C)(C)C [Example 28, 3-(4-((3-(4-Chloro-2,3-difluorophenyl)imidazo[1,2-a]pyrazin-8-yl)amino)-2-ethylbenzamido)-N,N,N-trimethylpropan-1-aminium Formate] is 2.5-fold higher in IC90: 238 nM for the first, 605 nM for the second.

Going from COc1ccc(-c2cnc3c(Nc4ccc(C(=O)N5CCC(C(=O)NCC[N+](C)(C)C)CC5)c(C)c4)nccn23)cc1F [Example 27, 2-(1-(4-((3-(3-Fluoro-4-methoxyphenyl)imidazo[1,2-a]pyrazin-8-yl)amino)-2-methylbenzoyl)piperidine-4-carboxamido)-N,N,N-trimethylethanaminium Formate] to COc1ccc(-c2cnc3c(Nc4ccc(C(=O)NCCC5CC[N+](C)(CC(=O)O)CC5)c(C)c4)nccn23)cc1 (stereo not drawn) [Example 23, 1-(carboxymethyl)-4-(2-(4-((3-(4-methoxyphenyl)imidazo[1,2-a]pyrazin-8-yl)amino)-2-methylbenzamido)ethyl)-1-methylpiperidin-1-ium Formate], the IC90 rises from 249 nM to 2220 nM (8.9-fold).

Compared with CC[N+]1(C)CCC(CCNC(=O)c2ccc(Nc3nccn4c(-c5ccc(OC)cc5)cnc34)cc2C)CC1 (stereo not drawn) [Example 20, 1-ethyl-4-(2-(4-((3-(4-methoxyphenyl)imidazo[1,2-a]pyrazin-8-yl)amino)-2-methylbenzamido)ethyl)-1-methylpiperidin-1-ium Formate], CC[N+](CC)(CC)CCCNC(=O)c1ccc(Nc2nccn3c(-c4ccc(OC)c(F)c4F)cnc23)cc1Cl [Example 48, 3-[[2-Chloro-4-[[3-(2,3-difluoro-4-methoxy-phenyl)imidazo[1,2-a]pyrazin-8-yl]amino]benzoyl]amino]propyl-triethyl-ammonium Formate] is 1.7-fold lower in IC90: 958 nM for the first, 566 nM for the second.

Same assay, conditions: ATCC17978, 16 h, read-out: ATCC 17978 IC90

First: COc1ccc(-c2cnc3c(Nc4ccc(C(=O)N(C)CCN5CC[N+](C)(C)CC5)c(Cl)c4)nccn23)c(F)c1F [Example 21, 2-chloro-4-[[3-(2,3-difluoro-4-methoxy-phenyl)imidazo[1,2-a]pyrazin-8-yl]amino]-N-[2-(4,4-dimethylpiperazin-4-ium-1-yl)ethyl]-N-methyl-benzamide 2,2,2-trifluoroacetate]
Second: COc1ccc(-c2cnc3c(Nc4ccc(C(=O)N5CC[C@@H](C(=O)NCC[N+](C)(C)C)[C@H](O)C5)c(C)c4)nccn23)cc1F [Example 37, 2-[[(3S,4R)-1-[4-[[3-(3-fluoro-4-methoxy-phenyl)imidazo[1,2-a]pyrazin-8-yl]amino]-2-methyl-benzoyl]-3-hydroxy-piperidine-4-carbonyl]amino]ethyl-trimethyl-ammonium Formate]
The IC90 of the first is 9.9-fold lower: 480 nM for the first, 4770 nM for the second.
